This is an account of results in patent US20220193068A1, “A GRK2 PROTEIN INHIBITOR COMPOUND AND A PHARMACEUTICAL COMPOSITION COMPRISING THE SAME” (CONSEJO NACIONAL DE INVESTIGACIONES CIENTÍFICAS Y TÉCNICAS …, priority 2019, published 2022).

Each structure is given as a SMILES string.

Series [1] deals with HEPG2 cell line. Put plainly: Viability of human hepatocyte HEPG2 cells, trypan blue exclusion. Conditions: 48 hours, 0.33 μM to 200 μM, versus DMSO control, C2 effect as from 10 μM.
Protocol: (§1) Since hepatotoxicity is one of the main forms of toxicity in which drugs affect the body, the cytotoxicity of inhibitors was assessed using the human hepatocyte HEPG2 cell line.
(§2) Cells were plated in a 96-well plate at a 22,000 cell/well density and incubated for 48 hours with the compounds in a concentration range of between 0.33 μM and 200 μM. Afterwards, their viability was analyzed through trypan blue exclusion method and counted in Neubauer camera.
In series [2] the target is T1, RGS domain of GRK2 (GRK2-K220R variant) (Bos taurus, UniProt P21146, K220R).
T1 construct: expressed in transfected cells
T1 sequence (P21146 1-689 K220R): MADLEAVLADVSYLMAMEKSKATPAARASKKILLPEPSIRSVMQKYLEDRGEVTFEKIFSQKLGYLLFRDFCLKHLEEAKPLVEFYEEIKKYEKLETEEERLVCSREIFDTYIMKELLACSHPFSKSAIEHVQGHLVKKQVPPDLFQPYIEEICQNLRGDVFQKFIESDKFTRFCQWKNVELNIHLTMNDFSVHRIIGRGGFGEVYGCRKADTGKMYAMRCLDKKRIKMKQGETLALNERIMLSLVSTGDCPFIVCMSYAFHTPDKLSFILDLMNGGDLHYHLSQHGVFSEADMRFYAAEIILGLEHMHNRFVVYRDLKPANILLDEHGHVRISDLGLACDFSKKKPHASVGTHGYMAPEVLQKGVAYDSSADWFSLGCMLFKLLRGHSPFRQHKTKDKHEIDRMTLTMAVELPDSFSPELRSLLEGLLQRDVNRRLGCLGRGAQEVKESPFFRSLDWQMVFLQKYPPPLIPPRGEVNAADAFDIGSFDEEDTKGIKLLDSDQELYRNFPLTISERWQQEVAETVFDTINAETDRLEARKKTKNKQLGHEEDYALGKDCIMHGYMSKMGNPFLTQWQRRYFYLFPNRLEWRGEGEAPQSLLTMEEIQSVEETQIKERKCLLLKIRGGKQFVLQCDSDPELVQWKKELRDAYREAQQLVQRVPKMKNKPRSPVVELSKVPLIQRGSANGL
As to the kind of experiment: cAMP response of rH2 to amthamine in HEK293 clones overexpressing rH2 and GRK2-K220R. The series is classed as cell-based. As to conditions: 40 min pretreatment, C2-C5 at 10 μM or 100 μM, L96B at 100 nM or 1 μM, 10 μM amthamine, *p<0.05. An excerpt: In order to assess the effect of inhibitors of the RGS domain of GRK2, a cell model derived from HEK293 transfected cells was obtained. Such cells overexpress the histamine H2 receptor (rH2), a G-protein coupled receptor (GPCR) of the Gs type that, when activated, promotes cAMP synthesis and which is inactivated by regulatory domain-mediated desensitization of G-protein stimulation (RGS) of GRK2. The clone obtained not only overexpresses rH2 but also overexpresses a negative dominant mutant of GRK2, the GRK2-K220R variant, which cannot phosphorylate GPCRs but can inactivate them through its RGS domain. In this system, the desensitizing effect of the RGS domain of GRK2 on the cAMP response of rH2 is evident.
Clones derived from HEK293 cells were obtained by stable and sequential transfection with pcDNA3.1Zeo(+)-HARH2 and pcDNA3-GRK2K22OR plasmids using K2 Transfection System (BIONTEX) reactive, following manufacturer's instructions and using, for a 35 mm diameter plate, a mixture A of 2.7 μg of total DNA and 150 μl of DMEM base and a mixture B of 6 μl of K2 transfection reactive and 150 μl of base DMEM. The following day, cells were plated in 96-well plates with 0.3 ml of complete DMEM per well. For clone selection, cells were incubated in selection agent-supplemented medium (50 μg/ml Zeocine or 1.2 mg/ml geneticin), following a limit dilution protocol. According to this protocol, cells were counted and plated performing serial dilutions, so as to obtain wells with con 1000, 100, 10 and 1 cell. The medium was renewed every other day by replacing 100 μl in each well with 100 μl of fresh medium of the same composition. After three weeks, several antibiotic-resistant clones were selected and afterwards plasmid expression was analyzed by Western blot.
Adhered clones were maintained in a humidified-atmosphere oven, with 5% CO2 at 37° C., in 10% FBS-supplemented DMEM medium, 50 μg/ml gentamicin, 0.8 mg/ml geneticin and 50 μg/ml zeocin. Cells were passed by adding 0.05% trypsin solution and 0.3 mM EDTA.
In order to assess the effect of GRK2 inhibitor compounds, clones were plated in 48-well plates at 50% confluence. […]
Next, cells were incubated for 3 min with 1 mM IBMX, a phosphodiesterase inhibitor that prevents degradation of the cAMP produced and afterwards the rH2-Gαs-adenylate-cyclase-cAMP signaling route was stimulated for 9 minutes with the rH2-specific agonist, amthamine, at a 10 μM concentration. […] This was evaporated and cAMP levels were determined.
cAMP in samples was quantified by adapting the linking protein-binding technique according to Davio et al, 1995.

In series [3] the test system is GRK2K220R/R106A (mutated RGS domain). As to the kind of experiment: Selectivity control: cAMP response of rH2 in HEK293 clones overexpressing rH2 and GRK2K220R/R106A. Format: cell-based. As to conditions: 10 μM amthamine, no significant differences. As to the method: In order to assess specificity of the effect of compounds over RGS domain of GRK2, assays were carried out in a second system that overexpresses rH2 and GRK2K220R/R106A, a GRK2 double mutant negative dominant construct that lacks both kinase activity and desensitization action through RGS domain. […] The R106A mutation that inactivates the RGS domain is redundant to the effect of an inhibitory potential, thus constituting the selectivity control of the model and allowing to determine if the enhancement in the receiver response occurred as a result of an inhibition of the RGS domain, or if it was the result of a non-specific action of the compound on an unwanted target. Those compounds that also raise cAMP levels in this control system are considered to be of non-specific action.
Since the latter mutation is redundant to the effect of a potential inhibitor of RGS domain of GRK2, this system allows us to discern whether the enhancement in the rH2 response occurred as a result of an RGS domain inhibition, or whether it resulted from a non-specific action of the compound on an unwanted target.

The test system of series [4] is HEPG2 cell line.
Protocol: as §1, §2

As for `COC(=O)c1ccc(NC(=O)c2ccc3ccccc3c2)cc1` [L96B, methyl 4-(naphthalene-2-amido)benzoate], the “cytotoxicity / cell viability” value with HEPG2 cell line [1] is “did not affect cell viability”.

As to `Cc1ccc2cc(C(=O)Nc3cccc(-c4nnco4)c3)c(C)nc2c1` [C3, 2,7-dimethyl-N-[3-(1,3,4-oxadiazol-2-yl)phenyl] quinoline-3-carboxamide], the “effect on H2 receptor capacity of response (cAMP)” value (from here on “effect on H2 receptor capacity”) in series [2] is “enhancing effect”. In series [3], the “effect over rH2 capacity of response (cAMP) with GRK2 mutated in the RGS domain” value (“effect over rH2 capacity of response” for short) is on record as “lack of effect”.

`O=C(Cc1n[nH]c(=O)c2ccccc12)Nc1cccc2ncccc12` [C5, 2-(4-oxo-3,4-dihydrophthalazin-1-yl)-N-(quinoline-5-yl)acetamide]: in series [2], the “effect on H2 receptor capacity” value is recorded as “enhancing effect”. Besides, the “effect over rH2 capacity of response” value in series [3] is recorded as “lack of effect”.

In the case of `O=C(CCc1ccc2ccccc2c1)N1CCCC(n2cccn2)C1` (centres unmarked) [C4, 3-(naphtalen-2-yl)-1-[3-(1H-pyrazol-1-yl)piperidin-1-yl]propan-1-one], the “effect on H2 receptor capacity” value in series [2] is on record as “enhancing effect”. Further, the “effect over rH2 capacity of response” value in series [3] is given as “lack of effect”.

With `CC(=O)N1CCc2cc(NC(=O)Nc3cccc4cccnc34)ccc21` [C2, 3-(1-acetyl-2,3-dihydro-H-indol-5-yl)-1-(quinoline-8-yl)urea], the “effect on H2 receptor capacity” value in series [2] is “enhancing effect”. Moreover, in series [3], the “effect over rH2 capacity of response” value was “lack of effect”. For the same compound, the concentration giving a half-maximal response (EC50) (in general, the concentration giving half of the maximal effect) in the series on HEPG2 cell line [4] turned out to be 10.3 µM.

As to `O=C(Nc1ccc(-c2nnco2)cc1)c1cnc2ccccc2c1` [L94C, N-[4-(1,3,4-oxadiazol-2-yl)phenyl]quinoline-3-carboxamide], the melting point (as a rule, the temperature of the solid-liquid transition) was 202 °C.
